Measured values reported in PMC9763021, “Comprehensive Assessment of Biomolecular Interactions of Morpholine-Based Mixed Ligand Cu(II) and Zn(II) Complexes of 2,2′-Bipyridine as Potential Anticancer and SARS-CoV-2 Agents: A Synergistic Experimental and Structure-Based Virtual Screening” (Bioinorganic Chemistry and Applications, 2022).

Columns and labels:
bovine serum albumin = bovine serum albumin (Bos taurus, UniProt P02769); test: BSA binding by UV-visible absorption titration; settings: for Chromism (% H), hyperchromism: BSA 278 nm; for Δλ (nm), blue shift of BSA band: Tris-HCl, 25 μM BSA; for ∆Gb°: –RT lnKapp, 298 K
Procedure: In the presence of Tris-HCl buffer solution, the UV-vis absorption titrations were done with a 25 μM concentration of BSA at room temperature. While the sample concentrations (0–25 μM) increased in the same BSA concentration solution, the change in the absorption band at 278 nm was continuously noted.
The UV-visible spectral titration properties are imperatively supported to scrutinize the structural changes and the nature of quenched biomolecules by the chemical substance. The titration was executed for BSA in the presence and absence of substances in Tris-HCl solution (Figure 7 and Table 7). Two distinctive adsorption peaks can be noticed in the UV-visible spectra of free BSA: one at 210 nm, which is connected to the polypeptide backbone, and the other at 280 nm, which is responsible for Trp, Tyr, and Phe aromatic amino acid residues. BSA's interaction with the test substances is designated by alterations in the electronic absorption spectra. Quenching typically occurs in either a static or dynamic phase. The static quenching mechanism only involves the synthesis of a bovine serum albumin-compound in the ground state, when a dynamic quenching mechanism involves the temporary presence of the excited state due to diffusion, which brings the BSA and the compound into close proximity. In addition, the dynamic quenching mechanism has no outcome on the electronic absorption spectrum; it only affects the excited state. Furthermore, both types have different temperature dependences; for example, in dynamic quenching, the quenching constants are meant to rise with temperature. Conversely, raised temperatures in static quenching favour decreased stability and lower quenching constants. […] It also recommended that bovine serum albumin and the test compounds in the ground state interact statically. In this case, the evaluated hyperchromism was found in the range of 47.79 to 65.62%. […] The Benesi–Hildebrand (37) is supported to evaluate the Kb values (Table 7). The Kapp findings for all substances were estimated from the finding of the intercept divided slope in the linear regression plot of [(A∞ − A0)/(Ax − A0)] vs. {1/[compound]} M^−1(Figure S34). The evaluated Kb findings for all test substances were in the subsequent order: (1a) > (2a) > (HL) with ∆Gb° values from –22.1246 to –28.0038 kJ·mol^−1. Complex (1a) is also clearly shown to have the greatest spontaneous binding efficacy with BSA among others.
Hyperchromism%=(A∞ − A0)/A∞ × 100; A0 is denoted as absorbance of BSA alone at 278 nm, A∞ is represented as absorbance of the fully bound form of BSA with complex or ligand, and Ax is absorbance of BSA in the addition of different concentration of complex or ligand, Gibb's free energy change ΔGb°=–RT lnKapp (where R = […] and T = 298 K); Kapp is denoted as apparent binding constant evaluated from the UV-vis absorption spectral titration.(37) A∞−A0/AX−A0=1/KbCompound+1, where ∆Amax = (A∞ − A0), ∆A = (Ax − A0), A0, Ax, and A∞ are denoted as the absorbance of free BSA, the absorbance of BSA in the increment concentrations of the compound, and the absorbance value of the fully bound form of bovine serum albumin with substance, respectively. Error limit ±2.5%.

Escherichia coli = test: Agar disc diffusion, strain A; type: cell-based; parameters: (inhibition %): concentration or dose not given beside the values; settings: for (inhibition %): (T–C)/T×100; for diameter of the clear zone inhibition: control (DMSO) = 6 mm
Procedure: (§1) In-vitro antimicrobial properties were evaluated for all samples by the agar disc diffusion method towards different fungal and bacterial strains. Additionally, the reported inhibition zone values were comparatively analyzed with the standard antifungal drugs ketoconazole and amphotericin B as well as the standard antibiotic medications streptomycin and amikacin.
(§2) The current research has a curious focus on the in vitro antimicrobial properties of biological systems because these studies are crucial for developing effective antibacterial and antifungal medications. […] It can also be spelled out based on the chelation theory proposed by Overtone and Tweedy. Chelation theory points out that the partial exchanging of the positive charge of the metal center with donor moieties, and overlap of the ligand orbitals will reduce the greater degree of the metal ion's polarity, which ultimately rises the delocalization of π and d electrons over the full chelated ring system. By raising the size of the metal ion due to the retarding of polarization, chelation may also enhance the complexes' lipophilic characteristics, which further stimulate the lipid membrane permeability and break down the bacteria' enzymes responsible for cell wall formation, therefore slowing down the regular cell processes. By preventing the production of cell walls/proteins/DNA, including by obstructing folate metabolism and the cytoplasmic membrane, antimicrobial drugs frequently either fully eliminate microbes or only prevent their cell growth. Additionally, the samples' mode of action may be employed in disrupting the cell's respiration process by forming an H-bond during the morpholine-fused iminic group coordinated with the active metal center of its components, inhibiting proliferation of the cell. […] The difference in the antimicrobial efficacy of some of the compounds towards various microorganisms influences on the impermeability of the cells of the germs or the diversity of ribosomes of the microbes. The % of the inhibition of all substances is estimated from (45) (Table 9).
(§3) (A, B, C, D, and E are represented as gram negative bacteria species Escherichia coli, Salmonella enteric serovar typhi, Salmonella enteric serovar typhi, Pseudomonas aeruginosa, and Shigella flexneri, respectively. F & G are denoted as gram positive bacteria species Staphylococcus aureus and Bacillus cereus. H, I, and J are represented as fungal strains Aspergillus niger, Candida albicans, and Mucor indicus. Standard drugs for bacterial strains: Amikacin & Streptomycin Standard drugs for fungal strains: Ketoconazole and Amphotericin B. [Control (DMSO) = 6 mm].(44) Inhibition %=T–C/T×100, where T and C are represented as the diameter of microbial growth of the sample plates and the control plate (6 mm), respectively. Error limits ±2.5–5.0% (P ≤ 0.05).

Candida albicans = test: Agar disc diffusion, strain I; type: cell-based; parameters: (inhibition %): concentration or dose not given beside the values; settings: for diameter of the clear zone inhibition: control = 6 mm
Procedure: as §1, §2, §3

bovine serum albumin, sequence (P02769 25-607): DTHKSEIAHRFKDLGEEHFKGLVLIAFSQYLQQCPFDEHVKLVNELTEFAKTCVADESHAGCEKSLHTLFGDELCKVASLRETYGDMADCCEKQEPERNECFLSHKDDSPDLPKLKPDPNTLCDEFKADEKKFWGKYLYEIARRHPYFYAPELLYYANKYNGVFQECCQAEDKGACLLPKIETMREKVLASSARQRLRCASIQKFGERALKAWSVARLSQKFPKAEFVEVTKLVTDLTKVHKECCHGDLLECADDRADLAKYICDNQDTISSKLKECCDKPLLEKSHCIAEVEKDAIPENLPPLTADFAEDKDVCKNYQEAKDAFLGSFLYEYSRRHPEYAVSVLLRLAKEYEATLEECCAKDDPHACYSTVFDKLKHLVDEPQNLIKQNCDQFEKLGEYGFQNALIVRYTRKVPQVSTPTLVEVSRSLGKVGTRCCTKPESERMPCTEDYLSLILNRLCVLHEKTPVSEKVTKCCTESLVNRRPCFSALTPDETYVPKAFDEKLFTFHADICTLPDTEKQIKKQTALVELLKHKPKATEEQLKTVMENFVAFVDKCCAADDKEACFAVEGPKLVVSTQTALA

Which results are given for `[Cu+2].[O-]c1ccccc1N=Cc1ccc(N2CCOCC2)cc1.[O-]c1ccccc1N=Cc1ccc(N2CCOCC2)cc1.c1ccc(-c2ccccn2)nc1` [(1a), [Cu(L)2(bpy)]]?
Binding constant Kapp by BH method (bovine serum albumin): 81059 M⁻¹; Chromism (% H), hyperchromism (bovine serum albumin): 65.62%; Δλ (nm), blue shift of BSA band (bovine serum albumin): 05 nm; ∆Gb° (bovine serum albumin): -6.69307 kcal/mol; (inhibition %) (Escherichia coli): 54%; diameter of the clear zone inhibition (Escherichia coli): 13 mm; (inhibition %) (Candida albicans): 50%; diameter of the clear zone inhibition (Candida albicans): 12 mm

For `[O-]c1ccccc1N=Cc1ccc(N2CCOCC2)cc1.[O-]c1ccccc1N=Cc1ccc(N2CCOCC2)cc1.[Zn+2].c1ccc(-c2ccccn2)nc1` [(2a), [Zn(L)2(bpy)]], which “Binding constant Kapp by BH method” value (bovine serum albumin) is on record?
The value was 44355 M⁻¹.

And the “Chromism (% H), hyperchromism” value (bovine serum albumin)?
The value was 55.04%.

And the “Δλ (nm), blue shift of BSA band” value (bovine serum albumin)?
Its value is 04 nm.

What about the “∆Gb°” value (bovine serum albumin) of the same compound?
The value was -6.33389 kcal/mol.

And the “(inhibition %)” value (Escherichia coli)?
The value was 50%.

What about the “diameter of the clear zone inhibition” value (Escherichia coli) of the same compound?
Its value is 12 mm.

What about the “(inhibition %)” value (Candida albicans) of the same compound?
Its value is 54%.

What about the “diameter of the clear zone inhibition” value (Candida albicans) of the same compound?
The value was 13 mm.

How did the Kd (bovine serum albumin) turn out when `Oc1ccccc1N=Cc1ccc(N2CCOCC2)cc1` [(HL), 2-(4-morpholinobenzylideneamino)phenol] was run?
The Kd was 132 µM.

What about the “Chromism (% H), hyperchromism” value (bovine serum albumin) of the same compound?
Its value is 47.79%.

And the “Δλ (nm), blue shift of BSA band” value (bovine serum albumin)?
The value was 02 nm.

And the “∆Gb°” value (bovine serum albumin)?
Its value is -5.28791 kcal/mol.

And the “(inhibition %)” value (Escherichia coli)?
The value was 33%.

What about the “diameter of the clear zone inhibition” value (Escherichia coli) of the same compound?
The value was 09 mm.

What about the “(inhibition %)” value (Candida albicans) of the same compound?
Its value is 40%.

And the “diameter of the clear zone inhibition” value (Candida albicans)?
Its value is 10 mm.
